Data from US20230339968A1, “KRAS Gl2C INHIBITORS” (Eli Lilly and Company, priority 2019, published 2023).
Where two headings read alike, the source gives them in different places.

Columns and labels:
[1] = system: SW837 (rectum); assay: CellTiterGlo Cell Proliferation Assay (2D), SW837; type: cell-based; conditions: Homo sapiens, 96 hours
Protocol: (§1) The purpose of this assay is to evaluate the growth of KRas G12C mutant tumor lines following treatment with a test compound. A panel of tumor cell lines harboring KRas G12C or other KRas mutations are collected (Table 25). All cell lines are from ATCC or other sources indicated.
(§2) Typically cells are cultured in RPMI1640 or Dulbecco's modified Eagle's medium (DMEM, GIBCO) supplemented with 10% FBS (GIBCO, Invitrogen). […] The cells are treated with compound for 96 hours, and then are analyzed for viability using the CellTiterGlo® Luminescent Cell Viability Assay® (Promega #G7572 for 2D) according to manufacturer's instructions and an EnVision™ plate reader. Nonlinear regression and sigmoidal dose-response curves are used to calculate the half maximal inhibitory concentration (IC50) with GraphPad Prism 4® software.

[2] = biological target: active KRas (Homo sapiens, UniProt P01116, G12C); assay: In vivo target inhibition, active KRas ELISA of tumor lysates, lung cancer H358 xenograft model; design: from tissue; host or cells: H358 xenograft tumours grown subcutaneously in nude female mice; conditions: NCI-H358, mouse; for inhibition at 12.5 mg/kg / inhibition at 25 mg/kg / inhibition at 50 mg/kg / inhibition at 100 mg/kg: po
Chain of active KRas (P01116 1-188 isoform P01116-2 G12C): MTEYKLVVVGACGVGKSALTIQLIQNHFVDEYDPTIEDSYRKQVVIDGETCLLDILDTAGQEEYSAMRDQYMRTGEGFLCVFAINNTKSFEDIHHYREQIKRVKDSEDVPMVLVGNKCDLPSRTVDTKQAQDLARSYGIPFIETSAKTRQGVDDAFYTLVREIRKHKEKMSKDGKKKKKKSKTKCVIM
Protocol: The purpose of these assays is to evaluate in vivo target inhibition of an orally administered test compound. Human lung cancer H358 cells, or pancreatic cancer MiaPaca-2 cells, are implanted into nude mice xenograft tumor models. H358 or MiaPaca-2 cells (10×106 in a 1:1 Matrigel® mix, 0.2 mL total volume) are implanted by subcutaneous injection in hind leg of nude female mice (Harlan Laboratories). […] Treatment is initiated with oral administration (gavage) of a test compound or vehicle (20% Captisol®, 25 mM phosphate, pH 2.0 in 0.2 mL) when the tumor size reaches approximately 300 mg.
For in vivo target inhibition and PD analysis, tumors are ground by mortar and pestle on dry ice and tumor fragments are added to 800 μL of lysis buffer containing 1% Triton™ X-100, 25 mM Tris pH7.5, 150 mM sodium chloride, 1 mM EDTA, and 1 mM EGTA with Halt protease and phosphatase inhibitor cocktail (Thermo Scientific, cat. no. 1861281) in lysing matrix D tubes (MP Biomedical®, cat. no. 6913-500) with one additional large bead (MP Biomedical® ¼″ ceramic sphere bead cat. no. 6540-412) per tube. Tumor fragments are homogenized in a Thermo Bio101® fast prep (FP120) at setting 4 for […] while cold for a total of 2 times. Lysates are spun at 14,000 rpm for 10 minutes at 4° C. to clarify. Protein estimation is done on the lysate supernatant using a BioRad Dc® protein assay and lysates are diluted in complete lysis/binding buffer from the Ras GTPase Chemi ELISA Kit® (Active Motif, cat. no. 52097). The active KRas ELISA is performed as follows: glutathione-coated ELISA wells are incubated with diluted RAF1-GST in complete lysis/binding buffer for 1 hour at 4° C. with gentle agitation. Wells are washed 3 times with wash buffer and 100 μg of lysates are added to each well and incubated at ambient temperature for 1 hour with mild agitation. The wells are washed an additional 3 times, then primary antibody, diluted in antibody binding buffer, is added to each well. The plates are incubated for 1 hour. The wells are washed 3 more times before adding HRP-conjugated secondary antibody, diluted in antibody binding buffer, to each well. The plates are incubated at ambient temperature for 1 hour. ELISA wells are washed 4 times, chemiluminescent reagent is added and then luminescence is read. For pERK Meso Scale Discovery ELISA, 25 μg of protein containing 0.1% SDS is used; Meso Scale Discovery Whole Cell Lysate Kit for pERK is provided by Meso Scale Discovery.
The purpose of this assay is to evaluate the dose dependent in vivo target inhibition and pharmacodynamic effects in a lung cancer model. The test compound is dosed in lung cancer H358 mouse xenograft model at a dose range from 12.5 to 100 mg/kg. The tumor samples are collected 8 hours post a single dose. The tumor lysates are prepared and the inhibition of pERKand active KRas is measured as described above.
The purpose of this assay is to evaluate the time dependent in vivo target inhibition and pharmacodynamic effects in a lung cancer model. […] After a single dose, the tumor samples are harvested at 2, 4, 8, 12 and 24 hour post doing. The tumor lysates are prepared and the inhibition of pERK and active KRas is measured as described above.

[3] = system: H358 xenograft; assay: Anti-tumor growth activity in lung cancer H358 xenograft mouse model; type: in vivo
Protocol: The purpose of this assay is to determine anti-tumor activities of test compounds (Example 34, 35, and 36) in a lung cancer H358 mouse xenograft model. H358 lung tumor cells (10×10^6) are implanted by subcutaneous injection in hind leg of nude female mice (Taconic Biosciences). A total of 4 mice in each group are used for the efficacy study. Treatment is initiated with oral administration (gavage) of the test compound or vehicle (20% Captisol®, 25 mM phosphate, pH 2.0 in 0.2 mL volume) once or twice daily for 28 days when the tumor size reaches approximately 300 mg. Tumor growth and body weight are monitored over time to evaluate efficacy and signs of toxicity. […] No significant animal body weight loss was observed through the whole study for these compounds.

[4] = system: H358 (lung); assay: CellTiterGlo Cell Proliferation Assay (2D), H358; type: cell-based; conditions: Homo sapiens, NCI-H358, 96 hours
Protocol: as §1, §2

[5] = system: H1373 (lung); assay: CellTiterGlo Cell Proliferation Assay (2D), H1373; type: cell-based; conditions: Homo sapiens, NCI-H1373, 96 hours
Protocol: as §1, §2

[6] = system: H23 (lung); assay: CellTiterGlo Cell Proliferation Assay (2D), H23; type: cell-based; conditions: 96 hours
Protocol: as §1, §2

[7] = system: LXFA-983L (lung); assay: CellTiterGlo Cell Proliferation Assay (2D), LXFA-983L; type: cell-based; conditions: 96 hours
Protocol: as §1, §2

Structure (SMILES)	IC50 [1] [nM]	inhibition at 10 µM [1] [%]	% Regression (Day 12) ([3]; 30 mg/kg PO, BID) [%]	IC50 [4] [nM]	inhibition at 10 µM [4] [%]	IC50 [5] [nM]	inhibition at 10 µM [5] [%]	IC50 [6] [nM]	inhibition at 10 µM [6] [%]	IC50 [7] [nM]	inhibition at 10 µM [7] [%]	further results
C=CC(=O)N1CCN2C(=O)c3cc(F)c(-c4ccc(F)c5sc(N)c(C#N)c45)c(Cl)c3OCC[C@H]2C1 [Example 35, 4-[(13aS)-10-Chloro-8-fluoro-6-oxo-2-prop-2-enoyl-1,3,4,12,13,13a-hexahydropyrazino[2,1-d][1,5]benzoxazocin-9-yl]-2-amino-7-fluoro-benzothiophene-3-carbonitrile]	330	64.2	−72.14	2	96.4	3540	86.3	24	98	> 10000	83.1	inhibition at 12.5 mg/kg ([2]; read-out: % Inhibition Active RAS, H358 xenograft mice, single oral dose 12.5 mg/kg, 8 hours): 81%; inhibition at 25 mg/kg ([2]; read-out: % Inhibition Active RAS, H358 xenograft mice, single oral dose 25 mg/kg, 8 hours): 73.4%; inhibition at 50 mg/kg ([2]; read-out: % Inhibition Active RAS, H358 xenograft mice, single oral dose 50 mg/kg, 8 hours): 94%; inhibition at 100 mg/kg ([2]; read-out: % Inhibition Active RAS, H358 xenograft mice, single oral dose 100 mg/kg, 8 hours): 91.9%; inhibition at 30 mg/kg ([2]; read-out: % Inhibition of Active Ras, H358 model, single dose 30 mg/kg, 2 h): 7.6%; inhibition at 30 mg/kg ([2]; read-out: % Inhibition of Active Ras, H358 model, single dose 30 mg/kg, 4 h): 65.7%; inhibition at 30 mg/kg ([2]; read-out: % Inhibition of Active Ras, H358 model, single dose 30 mg/kg, 8 h): 80.2%; inhibition at 30 mg/kg ([2]; read-out: % Inhibition of Active Ras, H358 model, single dose 30 mg/kg, 12 h): 39.3%; inhibition at 30 mg/kg ([2]; read-out: % Inhibition of Active Ras, H358 model, single dose 30 mg/kg, 24 h): 54.9%; % Regression (Day 26) ([3]; 30 mg/kg PO, BID): −67.68%
C=CC(=O)N1CCN2C(=O)c3cc(F)c(-c4ccc(F)c5sc(N)c(C#N)c45)c(Cl)c3OC[C@H]2C1 [Example 36, 4-[(4aR)-7-Chloro-9-fluoro-11-oxo-3-prop-2-enoyl-2,4,4a,5-tetrahydro-1H-pyrazino[2,1-c][1,4]benzoxazepine-8-yl]-2-amino-7-fluoro-benzothiophene-3-carbonitrile]	570	58.7	−68.96	8	89.1	5490	82.6	100	96.7	> 10000	88	inhibition at 30 mg/kg ([2]; H358 model, single dose 30 mg/kg, 2 h, read-out: % Inhibition of Active Ras): 72.6%; inhibition at 30 mg/kg ([2]; H358 model, single dose 30 mg/kg, 4 h, read-out: % Inhibition of Active Ras): 72.4%; inhibition at 30 mg/kg ([2]; H358 model, single dose 30 mg/kg, 8 h, read-out: % Inhibition of Active Ras): 88.5%; inhibition at 30 mg/kg ([2]; H358 model, single dose 30 mg/kg, 24 h, read-out: % Inhibition of Active Ras): 43.2%
C=CC(=O)N1CCN2C(=O)c3cc(Cl)c(-c4ccc(F)c5sc(N)nc45)c(Cl)c3OCC[C@H]2C1 (atropisomer, axis not shown) [Example 1, (13aS)-9-(2-Amino-7-fluoro-1,3-benzothiazol-4-yl)-8,10-dichloro-2-prop-2-enoyl-1,3,4,12,13,13a-hexahydropyrazino[2,1-d][1,5]benzoxazocin-6-one]	250	60.8		4	94.5	1810	68.8	45	98.2	3610	78.6	
C=CC(=O)N1CCN2C(=O)c3cc(F)c(-c4cccc5sc(N)c(C#N)c45)c(Cl)c3OCC[C@H]2C1 [Example 34, 4-[(13aS)-10-Chloro-8-fluoro-6-oxo-2-prop-2-enoyl-1,3,4,12,13,13a-hexahydropyrazino[2,1-d][1,5]benzoxazocin-9-yl]-2-amino-benzothiophene-3-carbonitrile]	200	59.6		2	95.6	6740	67.7	26	96.8	> 10000	68.8	inhibition at 12.5 mg/kg ([2]; H358 xenograft mice, single oral dose 12.5 mg/kg, 8 hours, read-out: % Inhibition Active RAS): 14.2%; inhibition at 25 mg/kg ([2]; H358 xenograft mice, single oral dose 25 mg/kg, 8 hours, read-out: % Inhibition Active RAS): 35.1%; inhibition at 50 mg/kg ([2]; H358 xenograft mice, single oral dose 50 mg/kg, 8 hours, read-out: % Inhibition Active RAS): 31.5%; inhibition at 100 mg/kg ([2]; H358 xenograft mice, single oral dose 100 mg/kg, 8 hours, read-out: % Inhibition Active RAS): 69.3%; % Regression (Day 12) ([3]; 100 mg/kg PO, QD): −30.96%; % Regression (Day 26) ([3]; 100 mg/kg PO, QD): −6.28%
